Reference: ChEMBL document CHEMBL1201862, “PubChem BioAssay data set” (2004)
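Five compound concentrations were applied to cells in 96-well plates for 48 hours; endpoints were derived by simple linear interpolation of the resulting dose-response curve. GI50 = concentration required for 50% inhibition of growth.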 Activity calls are given as the source filed them. Cut-off read from the data, not from the text of the source: active = GI50 up to about 1.1 µM and inactive = higher.

Columns and labels:
Experiment in all cases: DTP human tumour cell line panel, 48 h
M19-MEL = system: M19-MEL
RXF 631 = system: RXF 631
DMS-114 = system: DMS-114
KM-20L2 = system: KM-20L2
LXFL 529 = system: LXFL 529
HOP-18 = system: HOP-18
SNB-78 = system: SNB-78
Hs-578T = system: Hs-578T
BT-549 = system: BT-549

Measured: GI50

C[N+](C)(C)CC(=O)N/N=C(/Cc1nc2c3c(ccc2nc1O)C(=O)c1ccccc1C3=O)C(=O)Nc1ccc(Cl)c(Cl)c1
inactive: M19-MEL 38.2 µM | RXF 631 76.6 µM | DMS-114 27 µM | KM-20L2 > 100 µM

C/C(=N\NC(=N)N)C(CN1CCCCC1)C(c1ccccc1)c1c(O)c2ccccc2oc1=O (configuration not stated)
inactive: M19-MEL > 100 µM | RXF 631 > 100 µM | DMS-114 > 100 µM | KM-20L2 > 100 µM | LXFL 529 > 100 µM

CC(C)(C)c1cc(C(OCCl)(C(F)(F)F)C(F)(F)F)c2c(c1)C(C(F)(F)F)(C(F)(F)F)OC21c2ccccc2C(=O)c2ccccc21
inactive: M19-MEL > 100 µM | HOP-18 > 100 µM | RXF 631 > 100 µM | DMS-114 > 100 µM | KM-20L2 > 100 µM | SNB-78 > 100 µM | LXFL 529 > 100 µM

Cc1cccc(NC(=O)Cc2nc3ccccc3s2)c1C
inactive: M19-MEL > 100 µM | RXF 631 > 100 µM | DMS-114 > 100 µM | KM-20L2 > 100 µM | LXFL 529 > 100 µM

COc1ccc2nc3cc(Cl)ccc3c(Sc3ccc([N+](=O)[O-])cc3)c2c1
inactive: M19-MEL > 10 µM | HOP-18 > 10 µM | RXF 631 > 10 µM | DMS-114 > 10 µM | KM-20L2 > 10 µM | SNB-78 > 10 µM | LXFL 529 > 10 µM

COc1ccccc1NC(=O)C1=C(C)NC(C)=C(C(=O)Nc2ccccc2OC)C1c1cccc2ccccc12
inactive: M19-MEL 90.4 µM | HOP-18 76.7 µM | RXF 631 87.9 µM | DMS-114 25.6 µM | KM-20L2 > 100 µM | SNB-78 4.44 µM | LXFL 529 28.1 µM

CCOC(=O)/C(=C\c1ccc[nH]1)C(=O)c1ccccc1
inactive: M19-MEL > 100 µM | HOP-18 78.9 µM | RXF 631 > 100 µM | DMS-114 34.3 µM | KM-20L2 > 100 µM | SNB-78 > 100 µM | LXFL 529 > 100 µM

N=S(c1ccccc1[N+](=O)[O-])c1ccccc1[N+](=O)[O-]
inactive: Hs-578T 4.68 µM | M19-MEL 3.3 µM | BT-549 1.62 µM | HOP-18 6.11 µM | RXF 631 1.8 µM | SNB-78 2.68 µM | LXFL 529 2.96 µM

O=C(Cc1nc2ccccc2c(=O)n1-c1c(Cl)cccc1Cl)c1ccncc1
inactive: M19-MEL 20.3 µM | HOP-18 33.8 µM | RXF 631 23.9 µM | DMS-114 25.2 µM | KM-20L2 27.5 µM | SNB-78 34.1 µM | LXFL 529 27.7 µM

C/C(=C1/N=C(c2cc([N+](=O)[O-])ccc2Cl)N(c2cccc(C)c2)C1=O)c1cc2ccccc2oc1=O
inactive: M19-MEL 66.2 µM | HOP-18 74.6 µM | RXF 631 > 100 µM | DMS-114 27.1 µM | KM-20L2 > 100 µM | SNB-78 > 100 µM | LXFL 529 84.9 µM

CCOC(=O)NC(=O)c1cn(CCN2CCN(c3ncnc4[nH]cnc34)CC2)c(=O)[nH]c1=O
inactive: M19-MEL > 100 µM | HOP-18 > 100 µM | RXF 631 > 100 µM | DMS-114 > 100 µM | KM-20L2 > 100 µM | LXFL 529 > 100 µM

C#CCNC(=O)ON1C(=O)CCC1=O
inactive: M19-MEL > 100 µM | HOP-18 > 100 µM | RXF 631 > 100 µM | KM-20L2 > 100 µM | SNB-78 > 100 µM | LXFL 529 > 100 µM

O=C(CCCCCCCCCCc1ccccc1)c1c(O)cccc1O
inactive: M19-MEL 20.7 µM | HOP-18 29.1 µM | RXF 631 30.8 µM | DMS-114 20.7 µM | KM-20L2 61.7 µM | SNB-78 45.7 µM | LXFL 529 18.6 µM

CCCCCCCCCCCCCCCC(=O)OCC1OC(OC)C(NC(=O)N(CCCl)N=O)C(O)C1O (configuration not stated)
inactive: Hs-578T 23 µM | M19-MEL 22.5 µM | BT-549 28.3 µM | HOP-18 32.4 µM | DMS-114 13.2 µM | KM-20L2 20.3 µM | SNB-78 24.5 µM | LXFL 529 16.3 µM

CCO/C(CCn1[nH]c(=O)c(Cl)c(Cl)c1=O)=N\NC(=O)C(=O)NN
inactive: M19-MEL > 100 µM | HOP-18 > 100 µM | RXF 631 > 100 µM | DMS-114 > 100 µM | KM-20L2 > 100 µM | LXFL 529 > 100 µM

O=C(/C=C/c1ccccc1Cl)c1ccc(Cl)cc1Cl
inactive: M19-MEL 18 µM | HOP-18 17 µM | RXF 631 19 µM | DMS-114 11.8 µM | KM-20L2 15.1 µM | SNB-78 19.1 µM | LXFL 529 16.2 µM

CCOC(=O)N1CCN(C=S)CC1
inactive: M19-MEL > 100 µM | HOP-18 > 100 µM | RXF 631 > 100 µM | DMS-114 > 100 µM | KM-20L2 > 100 µM | SNB-78 > 100 µM | LXFL 529 > 100 µM

O=C1c2c(n(Cc3ccccc3)c(=O)n2Cc2ccccc2)C(=O)N1Cc1ccccc1
inactive: M19-MEL > 100 µM | HOP-18 > 100 µM | RXF 631 62.7 µM | DMS-114 34.6 µM | KM-20L2 52.7 µM | SNB-78 > 100 µM | LXFL 529 35 µM

Clc1ncnc2c1ncn2CCCCCCCCCCCCn1cnc2c(Cl)ncnc21
inactive: M19-MEL 2.27 µM | HOP-18 17.1 µM | DMS-114 1.67 µM | KM-20L2 16.1 µM | SNB-78 3.56 µM | LXFL 529 4.44 µM

Cc1ccc(C2=NN(C)COC2C(F)(F)F)cc1 (configuration not stated)
inactive: M19-MEL > 100 µM | HOP-18 > 100 µM | RXF 631 > 100 µM | DMS-114 > 100 µM | KM-20L2 > 100 µM | SNB-78 > 100 µM | LXFL 529 > 100 µM

c1ccc([P+](CCC[P+](c2ccccc2)(c2ccccc2)c2ccccc2)(c2ccccc2)c2ccccc2)cc1
inactive: M19-MEL 19.9 µM | HOP-18 54.7 µM | RXF 631 > 100 µM | DMS-114 16.5 µM | KM-20L2 33.5 µM | SNB-78 52.8 µM | LXFL 529 11.3 µM
